Measurements taken from ChEMBL document CHEMBL1138731, “Conversion of human-selective PPARalpha agonists to human/mouse dual agonists: a molecular modeling analysis” (Bioorg Med Chem Lett, 2004).

What was measured:
[1] = molecular target: T1, Peroxisome proliferator-activated receptor alpha (Mus musculus, UniProt P23204); test: Transactivation activity for mouse Peroxisome proliferator activated receptor alpha
T1 sequence (P23204 whole entry): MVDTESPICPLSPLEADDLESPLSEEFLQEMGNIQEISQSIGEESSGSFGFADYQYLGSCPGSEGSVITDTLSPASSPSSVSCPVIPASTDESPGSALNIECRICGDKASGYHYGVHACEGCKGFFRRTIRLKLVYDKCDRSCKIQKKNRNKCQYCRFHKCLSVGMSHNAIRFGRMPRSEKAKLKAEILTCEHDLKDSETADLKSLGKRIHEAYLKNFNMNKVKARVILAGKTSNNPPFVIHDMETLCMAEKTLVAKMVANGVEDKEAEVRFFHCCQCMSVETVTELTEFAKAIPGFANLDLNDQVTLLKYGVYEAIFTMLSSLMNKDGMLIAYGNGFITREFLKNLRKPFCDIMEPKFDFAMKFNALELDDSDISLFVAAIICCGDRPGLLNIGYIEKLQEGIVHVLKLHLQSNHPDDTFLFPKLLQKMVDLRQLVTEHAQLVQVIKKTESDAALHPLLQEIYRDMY

[2] = molecular target: T1, Peroxisome proliferator-activated receptor alpha; test: In vitro inhibition of mouse Peroxisome proliferator activated receptor alpha
Mus musculus = test: Effect on level of triglyceride at a dose of 3 mg/kg in mice treated for 7 days; format: functional
[3] = molecular target: T2, Peroxisome proliferator-activated receptor alpha (Homo sapiens, UniProt Q07869); test: Transactivation activity for human Peroxisome proliferator activated receptor alpha
T2 sequence (Q07869 whole entry): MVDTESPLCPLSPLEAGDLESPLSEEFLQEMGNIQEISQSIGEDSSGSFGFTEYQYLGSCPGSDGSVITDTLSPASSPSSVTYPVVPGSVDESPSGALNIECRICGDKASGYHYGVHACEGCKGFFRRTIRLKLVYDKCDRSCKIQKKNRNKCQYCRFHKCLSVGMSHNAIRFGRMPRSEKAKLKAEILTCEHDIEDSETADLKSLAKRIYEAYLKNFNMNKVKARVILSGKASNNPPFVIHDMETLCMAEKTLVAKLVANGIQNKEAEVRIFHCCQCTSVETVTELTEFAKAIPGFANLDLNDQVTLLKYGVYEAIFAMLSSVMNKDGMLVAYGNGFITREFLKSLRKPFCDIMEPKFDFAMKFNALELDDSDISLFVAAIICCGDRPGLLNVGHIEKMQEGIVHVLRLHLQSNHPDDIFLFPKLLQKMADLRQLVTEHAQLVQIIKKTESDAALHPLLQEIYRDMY

[4] = molecular target: T2, Peroxisome proliferator-activated receptor alpha; test: In vitro inhibition of human Peroxisome proliferator activated receptor alpha

Row | SMILES | EC50 [1] [µM] | IC50 [2] [µM] | Triglyceride level (Mus musculus) [%] | EC50 [3] [µM] | IC50 [4] [µM]
1 | Cc1oc(-c2ccc(-c3ccccc3)cc2)nc1CCOc1ccc(CC(C)(Oc2ccccc2)C(=O)O)cc1 (centres undefined) | 2.34 | 7.02 |  |  | 
2 | Cc1oc(-c2cccc(-c3ccccc3)c2)nc1CCOc1ccc(CC(C)(Oc2ccccc2)C(=O)O)cc1 (centres undefined) | 0.173 | 0.404 |  |  | 
3 | Cc1oc(-c2ccccc2)nc1CCOc1ccc(CC(C)(Oc2ccccc2)C(=O)O)cc1 (centres undefined) |  |  | ~56 |  | 
4 | Cc1oc(-c2cccc(-c3ccccc3)c2)nc1CCOc1ccc(CC(C)(Oc2ccc(C(C)(C)C)cc2)C(=O)O)cc1 (centres undefined) | 0.091 | 0.146 | ~39 | 0.049 | 0.133
5 | Cc1oc(-c2ccc(-c3ccccc3)cc2)nc1CCOc1ccc(CC(C)(Oc2ccc(C(C)(C)C)cc2)C(=O)O)cc1 (centres undefined) | 1.17 | 0.7 |  | 0.26 | 
6 | Cc1oc(-c2ccccc2)nc1CCOc1ccc(CC(C)(Oc2ccc(C(C)(C)C)cc2)C(=O)O)cc1 (centres undefined) | 0.211 | 0.515 |  | 0.011 | 0.149
7 | Cc1ccc(OC(C)(Cc2ccc(OCCc3nc(-c4ccc(-c5ccccc5)cc4)oc3C)cc2)C(=O)O)cc1 (centres undefined) | 1.04 | 1.46 |  | 0.039 | 0.375
8 | Cc1ccc(OC(C)(Cc2ccc(OCCc3nc(-c4cccc(-c5ccccc5)c4)oc3C)cc2)C(=O)O)cc1 (centres undefined) | 0.151 | 0.53 |  | 0.023 | 0.306
9 | Cc1ccc(OC(C)(Cc2ccc(OCCc3nc(-c4ccccc4)oc3C)cc2)C(=O)O)cc1 (centres undefined) | 0.585 | 1.4 |  | 0.007 | 0.064
